In data set [1] the test system is rabbit platelets (PAF-induced serotonin release). The data set is described as follows: PAF-induced release of tritiated serotonin from rabbit platelets. Format: cell-based, rabbit (New Zealand White). Particulars: Oryctolagus cuniculus, Platelet, PAF-induced, rabbit platelets. The method, then:
(§1) The cellular responses studied include (1) PAF-induced release of preloaded, radiolabeled serotonin from rabbit platelets, (2) PAF-induced degranulation (release of myeloperoxidase) from purified human nuetrophils and (3) PAF-induced adhesion of human neutrophils to latex beads. Each putative antagonist was tested at 30 μM for its effect on each response. Selected compounds were tested in a concentration-response fashion.
Blood is collected from the central ear artery of New Zealand White rabbits into a 1:7 volume of acid citrate dextrose. The blood is centrifuged at 1100 rpm for 20 minutes. The isolated platelet rich plasma (PRP) is then incubated at 37° C. for 30 minutes with 1 μCi^3 H-serotonin binoxalate per ml PRP. Labeled platelets are pelleted by centrifugation at 2800 rpm for 20 minutes. The platelets are then washed in Tyrodes gel buffer without calcium in the presence of 0.1 mM EGTA and again pelleted at 2800 rpm for 20 minutes. This wash process is repeated. The washed platelet pellet is resuspended in Tyrodes gel buffer without calcium and adjusted to a concentration of 1.25×10^9 platelets/ml, as determined from a standard curve of absorbance at 530 num vs platelet concentration.
Polystyrene reaction tubes containing various dilutions of PAF (for standard curve determination) or a single concentration of PAF with and without the subject antagonist in a 0.45 ml volume of Tyrodes gel buffer with calcium each receive a 0.05 ml aliquot of the paltelet preparation. After a 90 second incubation period at room temperature, the reaction is stopped by the addition of 0.02 ml of 9.25 % formaldehyde. The platelets are then pelleted by centrifugation at 2800 rpm for 15 minutes at 4° C.
Aliquots (0.1 ml) of the supernatants are added to 3 ml liquid scintillation fluid in polypropylene vials. The samples are then counted for radioactivity in a liquid scintillation counter. The platelets in one set of reaction tubes containing only buffer and labeled platelets are lysed using 0.01 ml 10% Triton TX, and the total reactivity is determined by liquid scintillation counting. The determined dpm represent the total radioactivity in the labelled platelets. The results for each determination are reported as the percentage release of the total radioactivity in the sample. The extent of PAF antagonist activity is expressed as the percent inhibition of ^3 H-serotonin release compared to that amount released by PAF alone.

Data set [2] relates to human neutrophils (PAF-induced degranulation). Nature of the data set: PAF-induced degranulation (myeloperoxidase release) of human neutrophils. Format: cell-based. To be noted: Neutrophil, 30 uM. The method, then:
as §1
Neutrophils are isolated from human venous blood via a two-step sedimentation procedure, and contaminating erythrocytes are selectively lysed. The neutrophils were preincubated in 0.25% Hanks buffer containing bovine serum albumin (BSA) with 5 ug Cytochalasin B/ ml cells for 5 minutes at 37° C. Neutrophils (4×10^6) are added to stimuli (PAF or buffer control) in the presence and absence of antagonist in Krebs-Ringer buffer to a final volume of 1.0 ml, and incubated at 37° C. for appropriate periods of time. At the end of the reaction period the neutrophils are pelleted by centrifugation at 3000 rpm for 5 minutes at 4° C.
Aliquots (0.2 ml) of the supernatants are added to polysyrene tubes to which are added the following: 0.6 ml)>25% Hanks BSA, 0.5 ml MPO buffer (0.2 M NaPO4, pH 6.2) and to start the color reaction 0.2 ml of a 1:1 v/v 0.05% H2 O2 :1.25 mg/ml dimethoxybenzidine (DMB). The reaction is allowed to run at room temperature for 15 minutes and is stopped by the addition of 0.05 ml 2% sodium azide. The developed color is quantitated in a spectrophotometer at 460 nm. The amount of myeloperoxidase (MPO) released by PAF stimulation can thus be determined. In order to determine the total amount of MPO in the cells an unstimulated control tube of neutrophils is lysed using 0.01 ml 10% Triton TX and the total MPO is determined via the color reaction and spectrophotometer reading. The activity of a given concentration of PAF is expressed as the percentage of the total MPO released. The activity of antagonists at a given concentration is expressed as a percentage of inhibition of PAF-induced MPO released at a single concentration of PAF.

The test system of data set [3] is human neutrophils (PAF-induced bead adhesion). The data set is described as follows: PAF-induced adhesion of human neutrophils to latex beads. To be noted: Neutrophil, albumin-coated latex beads. The class given is cell-based. The method, then: as §1
Latex bead suspension (0.6 ml; 10% aqueous suspension; particle diameter=1u) is pipeted into a 1.5 ml eppendorf centrifuge tube. The beads are pelleted by centrifugation, the supernatant is discarded and the beads are washed 2 times with 1 ml 0.9% saline. To the pelleted beads is added 0.5 ml 20 mg/ml human serum albunim (HSA) in Krebs-Ringer buffer.
Allow bed-albumin mixture to sit at room temperature for 10 minutes, centrifuge for 1 minute and remove the supernatant, and wash albumin-coated beads 3 times with saline. Resuspend the beads in 1 ml of Krebs-Ringer.
Human neutrophils are prepared as described for the neutrophil degranulation assay and 10^7 cells are added to 0.3 ml of Krebs-Ringerin the presence and absence of PAF and putative antagonist and are incubated at 37° for an appropriate period of time.
The albumin-coated beads are then added in 0.05 ml to give a final bead concentration of 1% v/v, resulting in a bead to neutrophil ratio of 100:1. The tubes containing cells and beads are then placed in an agitating water bath at 37° C. and 120 oscillation per minute for 10 minutes. The reaction is stopped by adding an equal volume of 2.5% glutaraldehyde in saline. The reaction tubes are allowed to stand at room temperature for 30 minutes. The cells are then washed 3 times (with centrifugation at 1000 rpm for 5 minutes) with saline to remove the unadhered latex beads and resuspended in 0.3 ml saline.
Wet mounts are prepared and adherence is examined by light microscopy at 400x. […] Activity of the antagonists is expressed as the percent inhibition of PAF-induced adherence.

Data set [4] can be described thus: Stability of free base solution on exposure to air (tlc). Format: physicochemical. Particulars: 1 h exposure to air. The method, then: 1-(3,4-Dimethoxybenzyl)-6-methyl-3,4-dihydroisoquinoline (D2). Amide D1 (24.7 g, 0.079 mol) and 850 ml of tetrachloroethane was distilled to remove 50 ml of solvent. This solution was added to a solution of 90 g (0.63 mol) of P2 O5 in HMDSO which was heated at 115°. The reaction mixture was heated at 155°-170° for 5 h at which time the reaction appeared complete by tlc. To the cooled reaction mixture was added over 1 h a solution of 100 g of NaOH in 1 l of water under nitrogen with stirring. The organic layer was separated and filtered through a pad of MgSO4. One-half of the tetrachloroethane solution was partially evaporated and […] hydrochloric acid (25 ml) wa added. The resulting mixture was evaporated to dryness. The residue was twice treated with EtOH (100 ml) and evaporated to dryness. The residue was washed with two 100 ml portions of ether and taken up to 100 ml of acetone and evaporated to give a foam. The foam was washed with ethyl acetate (60 ml) and dissolved in 75 ml of i-PrOH, treated with charcoal, filtered and boiled down to 50 ml. The solution deposited 3.4 g of 1-(3,4-dimethoxybenzyl)-6-methyl-3, 4-dihydroisoquinoline hydrochloride after storing overnight at 4°. Dilution of the mother liquor with ethyl acetate and ether gave another 2.9 g to raise the yield to 6.3 g (48% based on one-half of crude product purified).

In general, inhibition refers to the change of the read-out against control, counted positive when it falls. Regarding `COc1ccc(CC2=NCCc3cc(C)ccc32)cc1OC` [Compound D2, 1-(3,4-Dimethoxybenzyl)-6-methyl-3,4-dihydroisoquinoline], the inhibition at 30 µM was 70% in data set [1] (read-out: Platelet Serotonin Release % Inhibition at 30 uM, 30 uM); 17% in data set [2]; 23% in data set [3]. Also, in data set [1] (read-out: Platelet Serotonin Release I50), the IC50 was found to be 5.6 µM. Besides, in data set [4], the “Decomposition of free base in solution by tlc” value is listed as “extensive decomposition”.
